What was measured:
Assay in all cases: Kinase inhibitory activity profiling of RI-962@10 µM (406 kinases, Eurofins)
Format in all cases: biochemical
[1] = target: panel of human kinases (kinase named in endpoint) (Homo sapiens, UniProt P06493); details: 10 µM; read-out: Activity (%), CDK1/cyclinB(h)
In short: (§1)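 Radiometric filter-binding kinase assays: enzyme preincubated 15 min with compound in 8 mM MOPS pH 7.0, 0.2 mM EDTA, 250 μM peptide substrate, 10 mM magnesium acetate, 10 μM [γ-33P]-ATP. Reaction started with Mg/ATP, run 40 min at room temperature, stopped with phosphoric acid; 33P incorporation read by scintillation counting. Other kinases by similar protocols.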

[2] = target: panel of human kinases (kinase named in endpoint) (Homo sapiens, UniProt Q14289); details: 10 µM; read-out: Activity (%), Pyk2(h)
In short: as §1

[3] = target: panel of human kinases (kinase named in endpoint) (Homo sapiens, UniProt P51957); details: 10 µM; read-out: Activity (%), NEK4(h)
In short: as §1

[4] = target: panel of human kinases (kinase named in endpoint) (Homo sapiens, UniProt Q00532); details: 10 µM; read-out: Activity (%), CDKL1(h)
Chain of panel of human kinases (kinase named in endpoint) (Homo sapiens, UniProt Q00532) (Q00532 whole entry): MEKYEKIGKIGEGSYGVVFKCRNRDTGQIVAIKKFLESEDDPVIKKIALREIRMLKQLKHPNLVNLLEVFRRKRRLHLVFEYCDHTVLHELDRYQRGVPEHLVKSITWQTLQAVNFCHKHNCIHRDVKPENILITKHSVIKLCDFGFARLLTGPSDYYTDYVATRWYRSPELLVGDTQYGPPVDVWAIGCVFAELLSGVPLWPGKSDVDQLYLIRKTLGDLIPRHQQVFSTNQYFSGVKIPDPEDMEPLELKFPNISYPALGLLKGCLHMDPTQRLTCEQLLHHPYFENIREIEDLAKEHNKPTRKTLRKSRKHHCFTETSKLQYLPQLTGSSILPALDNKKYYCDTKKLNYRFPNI
In short: as §1

[5] = target: panel of human kinases (kinase named in endpoint) (Homo sapiens, UniProt O14757); details: 10 µM; read-out: Activity (%), CHK1(h)
In short: as §1

[6] = target: panel of human kinases (kinase named in endpoint) (Homo sapiens, UniProt O96017); details: 10 µM; read-out: Activity (%), CHK2(h)
In short: as §1

[7] = target: panel of human kinases (kinase named in endpoint) (Homo sapiens, UniProt P10721, V654A); details: 10 µM; read-out: Activity (%), cKit(V654A)(h)
Chain of panel of human kinases (kinase named in endpoint) (Homo sapiens, UniProt P10721, V654A) (P10721 26-976 V654A): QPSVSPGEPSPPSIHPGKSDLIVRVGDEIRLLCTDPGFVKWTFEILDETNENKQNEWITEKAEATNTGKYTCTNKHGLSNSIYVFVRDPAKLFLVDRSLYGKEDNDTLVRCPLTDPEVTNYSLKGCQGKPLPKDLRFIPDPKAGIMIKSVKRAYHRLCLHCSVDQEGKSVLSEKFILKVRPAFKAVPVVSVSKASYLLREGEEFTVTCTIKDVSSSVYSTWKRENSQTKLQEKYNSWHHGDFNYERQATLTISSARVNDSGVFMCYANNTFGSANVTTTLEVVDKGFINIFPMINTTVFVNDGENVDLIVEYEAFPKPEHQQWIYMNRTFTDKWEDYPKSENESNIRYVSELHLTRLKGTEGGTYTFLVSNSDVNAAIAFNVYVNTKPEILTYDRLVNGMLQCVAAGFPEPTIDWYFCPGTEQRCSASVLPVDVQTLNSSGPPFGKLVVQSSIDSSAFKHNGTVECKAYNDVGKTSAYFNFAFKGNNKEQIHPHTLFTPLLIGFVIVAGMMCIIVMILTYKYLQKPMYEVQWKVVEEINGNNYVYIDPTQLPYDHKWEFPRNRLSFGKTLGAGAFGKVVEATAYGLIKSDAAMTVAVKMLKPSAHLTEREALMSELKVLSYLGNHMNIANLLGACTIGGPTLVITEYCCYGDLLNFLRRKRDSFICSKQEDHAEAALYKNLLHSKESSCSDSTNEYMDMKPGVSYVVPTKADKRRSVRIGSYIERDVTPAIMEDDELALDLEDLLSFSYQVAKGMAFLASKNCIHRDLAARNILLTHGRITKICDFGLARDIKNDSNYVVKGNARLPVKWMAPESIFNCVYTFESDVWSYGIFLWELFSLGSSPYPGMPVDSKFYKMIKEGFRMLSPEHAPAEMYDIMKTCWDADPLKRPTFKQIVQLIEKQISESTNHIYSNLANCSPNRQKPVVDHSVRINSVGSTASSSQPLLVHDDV
In short: as §1

[8] = target: panel of human kinases (kinase named in endpoint) (Homo sapiens, UniProt P29320); details: 10 µM; read-out: Activity (%), EphA3(h)
Chain of panel of human kinases (kinase named in endpoint) (Homo sapiens, UniProt P29320) (P29320 21-983): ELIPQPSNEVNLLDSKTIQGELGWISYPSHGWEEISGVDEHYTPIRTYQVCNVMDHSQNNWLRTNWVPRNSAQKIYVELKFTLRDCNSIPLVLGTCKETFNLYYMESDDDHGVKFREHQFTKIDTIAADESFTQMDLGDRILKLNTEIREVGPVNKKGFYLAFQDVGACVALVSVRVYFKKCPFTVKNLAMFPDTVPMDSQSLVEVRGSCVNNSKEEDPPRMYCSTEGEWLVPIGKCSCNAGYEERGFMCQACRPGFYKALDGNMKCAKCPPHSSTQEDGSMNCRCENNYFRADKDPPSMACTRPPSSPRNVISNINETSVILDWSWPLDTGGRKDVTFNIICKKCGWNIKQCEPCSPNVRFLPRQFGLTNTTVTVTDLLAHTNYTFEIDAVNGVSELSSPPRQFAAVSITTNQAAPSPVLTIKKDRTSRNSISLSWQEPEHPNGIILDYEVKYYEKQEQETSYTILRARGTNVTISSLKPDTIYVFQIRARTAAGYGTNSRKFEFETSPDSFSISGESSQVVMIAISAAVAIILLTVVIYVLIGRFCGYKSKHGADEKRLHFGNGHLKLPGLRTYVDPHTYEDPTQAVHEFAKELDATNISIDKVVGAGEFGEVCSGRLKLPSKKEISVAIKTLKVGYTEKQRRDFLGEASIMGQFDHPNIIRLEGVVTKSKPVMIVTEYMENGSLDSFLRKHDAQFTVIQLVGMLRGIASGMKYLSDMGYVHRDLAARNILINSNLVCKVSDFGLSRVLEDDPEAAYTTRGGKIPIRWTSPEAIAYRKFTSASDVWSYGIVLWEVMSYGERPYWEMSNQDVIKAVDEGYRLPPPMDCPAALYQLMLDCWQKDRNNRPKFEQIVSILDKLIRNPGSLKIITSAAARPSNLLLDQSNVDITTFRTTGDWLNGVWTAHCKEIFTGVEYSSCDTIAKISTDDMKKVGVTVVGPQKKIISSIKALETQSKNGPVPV
In short: as §1

[9] = target: panel of human kinases (kinase named in endpoint) (Homo sapiens, UniProt Q99755); details: 10 µM; read-out: Activity (%), PIP5K1a(h)
In short: as §1

[10] = target: panel of human kinases (kinase named in endpoint) (Homo sapiens, UniProt Q7KZI7); details: 10 µM; read-out: Activity (%), PAR-1Bα(h)
In short: as §1

[11] = target: panel of human kinases (kinase named in endpoint) (Homo sapiens, UniProt P33981); details: 10 µM; read-out: Activity (%), TTK(h)
In short: as §1

[12] = target: panel of human kinases (kinase named in endpoint) (Homo sapiens, UniProt Q9UK32); details: 10 µM; read-out: Activity (%), Rsk4(h)
Chain of panel of human kinases (kinase named in endpoint) (Homo sapiens, UniProt Q9UK32) (Q9UK32 whole entry): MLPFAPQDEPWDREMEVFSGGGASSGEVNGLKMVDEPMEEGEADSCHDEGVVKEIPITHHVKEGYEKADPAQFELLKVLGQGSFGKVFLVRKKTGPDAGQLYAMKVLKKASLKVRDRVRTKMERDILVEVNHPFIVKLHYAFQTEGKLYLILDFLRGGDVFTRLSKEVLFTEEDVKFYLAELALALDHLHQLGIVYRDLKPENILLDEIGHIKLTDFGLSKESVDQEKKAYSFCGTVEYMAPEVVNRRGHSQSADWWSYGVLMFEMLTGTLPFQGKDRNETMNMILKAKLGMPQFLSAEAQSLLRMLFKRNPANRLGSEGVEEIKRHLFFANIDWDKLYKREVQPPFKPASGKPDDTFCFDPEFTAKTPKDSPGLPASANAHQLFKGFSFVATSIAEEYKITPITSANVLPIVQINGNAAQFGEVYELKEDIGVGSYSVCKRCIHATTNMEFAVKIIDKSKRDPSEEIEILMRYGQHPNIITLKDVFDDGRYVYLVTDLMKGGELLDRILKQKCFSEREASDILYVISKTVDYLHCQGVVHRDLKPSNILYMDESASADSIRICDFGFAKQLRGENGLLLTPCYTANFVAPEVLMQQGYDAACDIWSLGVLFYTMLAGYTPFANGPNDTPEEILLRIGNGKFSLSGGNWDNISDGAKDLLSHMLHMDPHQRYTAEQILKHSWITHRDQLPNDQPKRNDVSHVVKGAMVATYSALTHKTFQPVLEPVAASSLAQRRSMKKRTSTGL
In short: as §1

[13] = target: panel of human kinases (kinase named in endpoint) (Homo sapiens, UniProt Q9H4B4); details: 10 µM; read-out: Activity (%), Plk3(h)
Chain of panel of human kinases (kinase named in endpoint) (Homo sapiens, UniProt Q9H4B4) (Q9H4B4 whole entry): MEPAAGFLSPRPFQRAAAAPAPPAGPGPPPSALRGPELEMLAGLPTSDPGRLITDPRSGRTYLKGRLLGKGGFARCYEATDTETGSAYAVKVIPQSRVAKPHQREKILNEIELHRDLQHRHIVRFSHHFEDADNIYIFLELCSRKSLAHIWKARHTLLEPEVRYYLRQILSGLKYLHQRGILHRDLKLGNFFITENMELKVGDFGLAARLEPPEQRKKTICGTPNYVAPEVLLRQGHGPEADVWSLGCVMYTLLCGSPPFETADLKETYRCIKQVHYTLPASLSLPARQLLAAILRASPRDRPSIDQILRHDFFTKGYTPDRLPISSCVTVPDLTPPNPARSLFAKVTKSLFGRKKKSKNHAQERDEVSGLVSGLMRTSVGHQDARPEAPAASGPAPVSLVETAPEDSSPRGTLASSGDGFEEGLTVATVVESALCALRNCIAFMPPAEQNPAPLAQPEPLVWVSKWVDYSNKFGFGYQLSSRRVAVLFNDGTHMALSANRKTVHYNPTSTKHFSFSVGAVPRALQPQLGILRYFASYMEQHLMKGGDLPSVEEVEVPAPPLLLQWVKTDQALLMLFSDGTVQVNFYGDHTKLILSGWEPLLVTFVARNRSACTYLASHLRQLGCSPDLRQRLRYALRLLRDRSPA
In short: as §1

[14] = target: panel of human kinases (kinase named in endpoint) (Homo sapiens, UniProt O75914); details: 10 µM; read-out: Activity (%), PAK3(h)
In short: as §1

[15] = target: panel of human kinases (kinase named in endpoint) (Homo sapiens, UniProt Q16539, T106M); details: 10 µM; read-out: Activity (%), SAPK2a(T106M)(h)
Chain of panel of human kinases (kinase named in endpoint) (Homo sapiens, UniProt Q16539, T106M) (Q16539 whole entry T106M): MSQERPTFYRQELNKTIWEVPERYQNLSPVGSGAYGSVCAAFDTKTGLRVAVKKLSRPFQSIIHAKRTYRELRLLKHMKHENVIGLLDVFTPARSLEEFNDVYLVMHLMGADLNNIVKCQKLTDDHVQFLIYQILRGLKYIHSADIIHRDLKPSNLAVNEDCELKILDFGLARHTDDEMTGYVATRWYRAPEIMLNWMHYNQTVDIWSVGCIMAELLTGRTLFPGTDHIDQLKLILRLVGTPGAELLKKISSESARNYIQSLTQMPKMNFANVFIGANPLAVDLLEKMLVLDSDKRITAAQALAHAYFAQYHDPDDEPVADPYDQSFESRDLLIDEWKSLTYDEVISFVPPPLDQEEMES
In short: as §1

[16] = target: panel of human kinases (kinase named in endpoint) (Homo sapiens, UniProt Q9HC98); details: 10 µM; read-out: Activity (%), NEK6(h)
Chain of panel of human kinases (kinase named in endpoint) (Homo sapiens, UniProt Q9HC98) (Q9HC98 whole entry): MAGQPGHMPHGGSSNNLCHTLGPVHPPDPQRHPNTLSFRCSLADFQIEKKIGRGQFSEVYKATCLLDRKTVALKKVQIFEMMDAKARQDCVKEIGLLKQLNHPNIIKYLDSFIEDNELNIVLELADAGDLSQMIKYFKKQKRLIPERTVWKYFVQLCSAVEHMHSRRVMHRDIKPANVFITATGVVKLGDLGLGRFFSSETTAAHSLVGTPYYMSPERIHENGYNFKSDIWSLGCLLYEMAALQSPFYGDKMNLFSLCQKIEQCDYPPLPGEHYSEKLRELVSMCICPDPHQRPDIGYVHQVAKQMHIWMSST
In short: as §1

[17] = target: panel of human kinases (kinase named in endpoint) (Homo sapiens, UniProt P49840); details: 10 µM; read-out: Activity (%), GSK3α(h)
In short: as §1

[18] = target: panel of human kinases (kinase named in endpoint) (Homo sapiens, UniProt Q9BZL6); details: 10 µM; read-out: Activity (%), PKD2(h)
In short: as §1

[19] = target: panel of human kinases (kinase named in endpoint) (Homo sapiens, UniProt P14616); details: 10 µM; read-out: Activity (%), IRR(h)
In short: as §1

[20] = target: panel of human kinases (kinase named in endpoint) (Homo sapiens, UniProt P07333, Y969C); details: 10 µM; read-out: Activity (%), Fms(Y969C)(h)
In short: as §1

[21] = target: panel of human kinases (kinase named in endpoint) (Homo sapiens, UniProt O00444); details: 10 µM; read-out: Activity (%), Plk4(h)
In short: as §1

[22] = target: panel of human kinases (kinase named in endpoint) (Homo sapiens, UniProt P30291); details: 10 µM; read-out: Activity (%), Wee1(h)
Chain of panel of human kinases (kinase named in endpoint) (Homo sapiens, UniProt P30291) (P30291 whole entry): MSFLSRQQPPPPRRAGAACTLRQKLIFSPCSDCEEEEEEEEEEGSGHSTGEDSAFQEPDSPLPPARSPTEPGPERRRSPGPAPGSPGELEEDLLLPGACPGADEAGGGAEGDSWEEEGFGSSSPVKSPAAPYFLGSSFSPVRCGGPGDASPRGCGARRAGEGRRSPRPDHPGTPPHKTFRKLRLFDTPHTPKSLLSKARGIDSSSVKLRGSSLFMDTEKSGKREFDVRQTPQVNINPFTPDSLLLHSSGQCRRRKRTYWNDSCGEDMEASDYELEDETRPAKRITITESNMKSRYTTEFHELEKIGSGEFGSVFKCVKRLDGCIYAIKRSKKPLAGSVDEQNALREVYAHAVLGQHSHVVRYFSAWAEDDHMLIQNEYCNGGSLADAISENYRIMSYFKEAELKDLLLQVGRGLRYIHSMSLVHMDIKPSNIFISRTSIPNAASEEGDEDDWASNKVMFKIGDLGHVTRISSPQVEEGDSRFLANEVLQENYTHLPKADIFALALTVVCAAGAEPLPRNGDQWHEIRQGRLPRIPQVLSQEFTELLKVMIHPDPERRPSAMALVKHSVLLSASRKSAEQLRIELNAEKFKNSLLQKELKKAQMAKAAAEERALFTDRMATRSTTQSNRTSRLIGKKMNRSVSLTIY
In short: as §1

[23] = target: panel of human kinases (kinase named in endpoint) (Homo sapiens, UniProt Q9UBE8); details: 10 µM; read-out: Activity (%), NLK(h)
In short: as §1

[24] = target: panel of human kinases (kinase named in endpoint) (Homo sapiens, UniProt Q9Y463); details: 10 µM; read-out: Activity (%), DYRK1B(h)
In short: as §1

[25] = target: panel of human kinases (kinase named in endpoint) (Homo sapiens, UniProt Q96RR4); details: 10 µM; read-out: Activity (%), CaMKK2(h)
In short: as §1

[26] = target: panel of human kinases (kinase named in endpoint) (Homo sapiens, UniProt P52333); details: 10 µM; read-out: Activity (%), JAK3(h)
In short: as §1

CC(C)C(=O)Nc1nc2cc(-c3ccc4c(c3)c(C(=O)NC(C)c3ccccc3)cn4C)ccn2n1 (centres unmarked) [RI-962]
activity at 10 µM [1]: 99%
activity at 10 µM [2]: 106%
activity at 10 µM [3]: 104%
activity at 10 µM [4]: 98%
activity at 10 µM [5]: 124%
activity at 10 µM [6]: 98%
activity at 10 µM [7]: 85%
activity at 10 µM [8]: 105%
activity at 10 µM [9]: 106%
activity at 10 µM [10]: 103%
activity at 10 µM [11]: 92%
activity at 10 µM [12]: 61%
activity at 10 µM [13]: 88%
activity at 10 µM [14]: 77%
activity at 10 µM [15]: 86%
activity at 10 µM [16]: 99%
activity at 10 µM [17]: 112%
activity at 10 µM [18]: 98%
activity at 10 µM [19]: 100%
activity at 10 µM [20]: 73%
activity at 10 µM [21]: 88%
activity at 10 µM [22]: 92%
activity at 10 µM [23]: 93%
activity at 10 µM [24]: 100%
activity at 10 µM [25]: 81%
activity at 10 µM [26]: 95%
